Results on 38 compounds are retold here after patent US20240174603A1 (Rappta Therapeutics Oy, priority 2021, published 2024).

This experiment has as its system LNCaP cells. The experiment is described as follows: LNCaP cell viability assay (MTS). The conditions noted are these: Homo sapiens, LNCaP, 48 h, LNCaP cell line. The experiment is classed as cell-based. Put shortly: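 GI50 derived by nonlinear four-parameter curve fitting (bottom fixed at zero) of MTS viability data. Prostate LNCaP cells seeded at 5000/well were given compound doses from 1 to 80 µM one day after plating and assayed after 48 h of exposure.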

On to `CC(C)(C)Oc1ccccc1CNS(=O)(=O)c1ccc(OC(F)(F)F)cc1` [Compound 78, N-(2-(tert-butoxy)benzyl)-4-(trifluoromethoxy)benzenesulfonamide], for which growth was halved (GI50) at 46 µM.

Take `O=S(=O)(NCCCN(Cc1ccco1)CC1CCCO1)c1ccc(OC(F)(F)F)cc1` (centres unmarked) [Compound 79, N-(3-((furan-2-ylmethyl)((tetrahydrofuran-2-yl)methyl)amino)propyl)-4-(trifluoromethoxy)benzenesulfonamide]: the GI50 (usually the concentration that inhibits growth by half) came to 49 µM. This GI50 and that of the compound before are within 1.5-fold of each other.

`O=S(=O)(NCC1(c2ccc(Br)cc2Cl)CC1)c1ccc(OC(F)(F)F)cc1` [Compound 80, N-((1-(4-bromo-2-chlorophenyl)cyclopropyl)methyl)-4-(trifluoromethoxy)benzenesulfonamide] came in with a GI50 of 23 µM.

In turn, `O=S(=O)(NCC1(Cc2ccc(Br)cc2)CC1)c1ccc(OC(F)(F)F)cc1` [Compound 81, N-((1-(4-bromobenzyl)cyclopropyl)methyl)-4-(trifluoromethoxy)benzenesulfonamide] displayed a GI50 of 40 µM.

Regarding `CS(=O)(=O)c1cc(CNS(=O)(=O)c2ccc(OC(F)(F)F)cc2)cc(C(F)(F)F)c1` [Compound 82, N-(3-(methylsulfonyl)-5-(trifluoromethyl)benzyl)-4-(trifluoromethoxy)benzenesulfonamide], the GI50 was determined as 64 µM.

Regarding `O=S(=O)(NCC1(CCOCc2ccccc2)CC1)c1ccc(OC(F)(F)F)cc1` [Compound 83, N-((1-(2-(benzyloxy)ethyl)cyclopropyl)methyl)-4-(trifluoromethoxy)benzenesulfonamide], the GI50 is 38 µM.

In turn, `CC1(C)CC1(CNS(=O)(=O)c1ccc(OC(F)(F)F)cc1)c1ccc(F)cc1F` (centres unmarked) [Compound 84, N-((1-(2,4-difluorophenyl)-2,2-dimethylcyclopropyl)methyl)-4-(trifluoromethoxy)benzenesulfonamide] registered a GI50 of 18 µM.

The compound `O=S(=O)(N[C@H](Cc1cc(F)c(F)cc1F)CC(F)(F)F)c1ccc(OC(F)(F)F)cc1` [Compound 85, (R)—N-(4,4,4-trifluoro-1-(2,4,5-trifluorophenyl)butan-2-yl)-4-(trifluoromethoxy)benzenesulfonamide] showed a concentration for 50% growth inhibition (GI50) of 26 µM. This GI50 and that of the compound before are within 1.5-fold of each other.

In turn, `O=S(=O)(NC(c1ccc(Cl)cc1)C1CCCC1)c1ccc(OC(F)(F)F)cc1` (centres unmarked) [Compound 86, N-((4-chlorophenyl)(cyclopentyl)methyl)-4-(trifluoromethoxy)benzenesulfonamide] had a GI50 of 75 µM.

Consider `CC1CCN(c2ccccc2CNS(=O)(=O)c2ccc(OC(F)(F)F)cc2)CC1` [Compound 87, N-(2-(4-methylpiperidin-1-yl)benzyl)-4-(trifluoromethoxy)benzenesulfonamide], for which the GI50 is 23 µM.

In turn, `O=S(=O)(NCC1(c2cc(C(F)(F)F)ccc2Cl)CC1)c1ccc(OC(F)(F)F)cc1` [Compound 88, N-((1-(2-chloro-5-(trifluoromethyl)phenyl)cyclopropyl)methyl)-4-(trifluoromethoxy)benzenesulfonamide] showed a 50% growth inhibitory concentration (GI50) of 25 µM. This GI50 and that of the compound before are within 1.5-fold of each other.

Consider `O=S(=O)(NCCCOCCOCc1ccccc1)c1ccc(OC(F)(F)F)cc1` [Compound 89, N-(3-(2-(benzyloxy)ethoxy)propyl)-4-(trifluoromethoxy)benzenesulfonamide], for which the GI50 turned out to be 48 µM.

Take `CCn1nc(C(F)(F)F)cc1COCCNS(=O)(=O)c1ccc(OC(F)(F)F)cc1` [Compound 90, N-(2-((1-ethyl-3-(trifluoromethyl)-1H-pyrazol-5-yl)methoxy)ethyl)-4-(trifluoromethoxy)benzenesulfonamide]: halving of growth (GI50) required 28 µM.

On to `O=S(=O)(NCC1CN(Cc2ccccc2)CC12CCC2)c1ccc(OC(F)(F)F)cc1` (centres unmarked) [Compound 91, N-((6-benzyl-6-azaspiro[3.4]octan-8-yl)methyl)-4-(trifluoromethoxy)benzenesulfonamide], for which growth was halved (GI50) at 28 µM.

`COC(=O)C(NS(=O)(=O)c1ccc(OC(F)(F)F)cc1)c1ccccc1Br` (centres unmarked) [Compound 92, Methyl 2-(2-bromophenyl)-2-((4-(trifluoromethoxy)phenyl)sulfonamido)acetate] returned a GI50 of 42 µM.

Take `CC(CC1CCCCN1C)NS(=O)(=O)c1ccc(OC(F)(F)F)cc1` (centres unmarked) [Compound 93, N-(1-(1-methylpiperidin-2-yl)propan-2-yl)-4-(trifluoromethoxy)benzenesulfonamide]: the GI50 came to 34 µM.

In turn, `CCOC(=O)CC(NS(=O)(=O)c1ccc(OC(F)(F)F)cc1)c1cccc(C(F)(F)F)c1` (centres unmarked) [Compound 94, Ethyl 3-((4-(trifluoromethoxy)phenyl)sulfonamido)-3-(3-(trifluoromethyl)phenyl)propanoate] yielded a GI50 of 25 µM. This GI50 and that of the compound before are within 1.5-fold of each other.

Regarding `CC1CCCCC1OCCNS(=O)(=O)c1ccc(OC(F)(F)F)cc1` (centres unmarked) [Compound 95, N-(2-((2-methylcyclohexyl)oxy)ethyl)-4-(trifluoromethoxy)benzenesulfonamide], the concentration for 50% growth inhibition (GI50) turned out to be 15 µM.

Consider `O=S(=O)(NCCNS(=O)(=O)c1ccc(F)c(Cl)c1)c1ccc(OC(F)(F)F)cc1` [Compound 96, 3-chloro-4-fluoro-N-(2-((4-(trifluoromethoxy)phenyl)sulfonamido)ethyl)benzenesulfonamide], for which growth was halved (GI50) at 31 µM.

`O=S(=O)(NCCNS(=O)(=O)c1ccc(Cl)cc1F)c1ccc(OC(F)(F)F)cc1` [Compound 97, 4-chloro-2-fluoro-N-(2-((4-(trifluoromethoxy)phenyl)sulfonamido)ethyl)benzenesulfonamide] yielded a GI50 of 41 µM.

Turning to `CN(C)CC1(CNS(=O)(=O)c2ccc(OC(F)(F)F)cc2)CC1` [Compound 98, N-((1-((dimethylamino)methyl)cyclopropyl)methyl)-4-(trifluoromethoxy)benzenesulfonamide], growth was halved (GI50) at 29 µM.

`CC1CCCC(CNS(=O)(=O)c2ccc(OC(F)(F)F)cc2)(N(C)C)C1` (centres unmarked) [Compound 99, N-((1-(dimethylamino)-3-methylcyclohexyl)methyl)-4-(trifluoromethoxy)benzenesulfonamide] registered a GI50 of 45 µM.

`O=S(=O)(NCCN1c2ccccc2NS1(=O)=O)c1ccc(OC(F)(F)F)cc1` [Compound 100, N-(2-(2,2-dioxidobenzo[c] [1,2,5]thiadiazol-1(3H)-yl)ethyl)-4-(trifluoromethoxy)benzenesulfonamide] yielded a GI50 of 61 µM.

Compound `O=S(=O)(NC(c1ccc(F)cc1)C1CCCO1)c1ccc(OC(F)(F)F)cc1` (centres unmarked) [Compound 101, N-((4-fluorophenyl)(tetrahydrofuran-2-yl)methyl)-4-(trifluoromethoxy)benzenesulfonamide] showed a 50% growth inhibitory concentration (GI50) of 33 µM.

Take `Cc1ccccc1C(NS(=O)(=O)c1ccc(OC(F)(F)F)cc1)C1CCCC(C)C1` (centres unmarked) [Compound 102, N-((3-methylcyclohexyl)(o-tolyl)methyl)-4-(trifluoromethoxy)benzenesulfonamide]: the GI50 was 14 µM.

On to `CC1CC1C(NS(=O)(=O)c1ccc(OC(F)(F)F)cc1)c1ccccc1` (centres unmarked) [Compound 103, N-((2-methylcyclopropyl)(phenyl)methyl)-4-(trifluoromethoxy)benzenesulfonamide], for which the GI50 was 20 µM.

`Cc1ccc(C(NS(=O)(=O)c2ccc(OC(F)(F)F)cc2)C(C)S(C)(=O)=O)cc1` (centres unmarked) [Compound 104, N-(2-(methylsulfonyl)-1-(p-tolyl)propyl)-4-(trifluoromethoxy)benzenesulfonamide]: it took 49 µM to inhibit growth by half (GI50).

Compound `CC(NS(=O)(=O)c1ccc(OC(F)(F)F)cc1)C(NC(=O)OC(C)(C)C)c1ccccc1` (centres unmarked) [Compound 105, Tert-butyl (1-phenyl-2-((4-(trifluoromethoxy)phenyl)sulfonamido)propyl)carbamate] gave a GI50 of 37 µM.

Compound `CCC(NS(=O)(=O)c1ccc(OC(F)(F)F)cc1)(C(=O)OC)c1ccccc1` (centres unmarked) [Compound 107, Methyl 2-phenyl-2-((4-(trifluoromethoxy)phenyl)sulfonamido)butanoate] had a GI50 of 69 µM.

On to `O=[N+]([O-])c1ccc(S(=O)(=O)NCCNS(=O)(=O)c2ccc(OC(F)(F)F)cc2)cc1` [Compound 108, 4-nitro-N-(2-((4-(trifluoromethoxy)phenyl)sulfonamido)ethyl)benzenesulfonamide], for which the GI50 was determined as 65 µM.

On to `CC(C)CC(NS(=O)(=O)c1ccc(OC(F)(F)F)cc1)C(=O)Nc1nccs1` (centres unmarked) [Compound 109, 4-methyl-N-(thiazol-2-yl)-2-((4-(trifluoromethoxy)phenyl)sulfonamido)pentanamide], for which it took 25 µM to inhibit growth by half (GI50).

For the compound `CCOC(=O)C(CC1CCOC1)NS(=O)(=O)c1ccc(OC(F)(F)F)cc1` (centres unmarked) [Compound 110, Ethyl 3-(tetrahydrofuran-3-yl)-2-((4-(trifluoromethoxy)phenyl)sulfonamido)propanoate], the GI50 worked out at 61 µM. Compared with the last compound, the GI50 is about 2.4-fold higher.

In turn, `COC(=O)C(Cc1ccccc1O)NS(=O)(=O)c1ccc(OC(F)(F)F)cc1` (centres unmarked) [Compound 111, Methyl 3-(2-hydroxyphenyl)-2-((4-(trifluoromethoxy)phenyl)sulfonamido)propanoate] yielded a GI50 of 50 µM. The GI50 values of the last two compounds are within 1.5-fold of each other.

`COC(=O)C(Cc1ccc(O)c(F)c1)NS(=O)(=O)c1ccc(OC(F)(F)F)cc1` (centres unmarked) [Compound 112, Methyl 3-(3-fluoro-4-hydroxyphenyl)-2-((4-(trifluoromethoxy)phenyl)sulfonamido)propanoate] displayed a GI50 of 38 µM. The GI50 values of the last two compounds are within 1.5-fold of each other.

The compound `CC(C)c1ccc(C(CC(=O)O)NS(=O)(=O)c2ccc(OC(F)(F)F)cc2)cc1` (centres unmarked) [Compound 113, 3-(4-isopropylphenyl)-3-((4-(trifluoromethoxy)phenyl)sulfonamido)propanoic acid] yielded a GI50 of 66 µM. Against the preceding compound, the GI50 is about 1.7-fold higher.

As for `CC(C)(C)OC(=O)NC[C@H](NS(=O)(=O)c1ccc(OC(F)(F)F)cc1)c1ccccc1` [Compound 114, tert-butyl (R)-(2-phenyl-2-((4-(trifluoromethoxy)phenyl)sulfonamido)ethyl)carbamate], it took 42.5 µM to inhibit growth by half (GI50).

`CC(C)(C)OC(=O)NC[C@@H](NS(=O)(=O)c1ccc(OC(F)(F)F)cc1)c1ccccc1` [Compound 115, tert-butyl (S)-(2-phenyl-2-((4-(trifluoromethoxy)phenyl)sulfonamido)ethyl)carbamate]: halving of growth (GI50) required 51.6 µM. The GI50 values of the last two compounds are within 1.5-fold of each other.

The compound `NC[C@H](NS(=O)(=O)c1ccc(OC(F)(F)F)cc1)c1ccccc1` [Compound 116, (R)—N-(2-amino-1-phenylethyl)-4-(trifluoromethoxy)benzenesulfonamide] gave a concentration for 50% growth inhibition (GI50) of 51.2 µM.
